Source: patent US12085575B2, “Compositions and methods for detecting proteinopathies” (BOARD OF SUPERVISORS OF LOUISIANA STATE UNIVERSITY AND …, priority 2011, dated 2024)

Columns and labels:
Assay type in all cases: cell-based, human
[1] = tested on: HA-polyubiquitylated proteins; test: UV-induced degradation of HA-polyubiquitylated proteins (anti-HA Western blot); conditions: MG132 1 nm or 3-MA 10 nm for 18 h, UV 25 mJ/m2
Method: Immunoblotting Analysis of HA-ubiquitin conjugated proteins in cells exposed to UV radiation. Cells ([…]) were transfected with a hemagglutinin (HA)-ubiquitin plasmid using the PolyFect transfection reagent (Qiagen; Valencia, CA) as described (24). Twenty-four h after transfection, cells were treated with either proteasome inhibitor MG132 (1 μM) (Boston Biochemicals; Cambridge, MA) or autophagy inhibitor Bafilomycin A1 (Bafl) (1 nM) (Sigma-Aldrich) or 3-Methyladenine (3-MA) (100 nM) for 18 h. Cells were exposed to UV radiation (25 mJoules, using BioRad GS Gene Linker™ UV Chamber) and/or left untreated. Cells were then allowed to recover in the presence of inhibitors for 3 hr. Cell lysis, SDS-PAGE, and immunoblotting analysis to detect HA-ubiquitin conjugated proteins using anti-HA antibodies was carried out as described herein.
Decrease in the steady state levels of polyubiquitylated proteins could be due to their increased deubiquitylation or increased degradation via the 26S proteasome. Also, the ubiquitin antibody used in the experiment herein is known to cross-react with free ISG15/UCRP (44), and ISG15 protein is elevated in A-T cells (20). An HA-ubiquitin construct was transfected and then the steady state levels of the HA-polyubiquitylated proteins was assessed (to rule out the possibility of protein polyubiquitylation versus protein polyISGlyation), in the absence or presence of the proteasome inhibitor MG132 (to rule out the possibility of protein deubiquitylation versus protein degradation), in UV treated A-T and ATM+ cells. In FIG. 8B, A-T and ATM+ cells were transfected with a HA-ubiquitin construct. Cells were then treated with MG132 (1 μM) or Bafl (1 nM) for 18 hours and exposed to UV radiation (25 mJ/m2). After recovery in the presence of inhibitors for an additional three hours, cells were lysed. Cell extracts were analyzed by Western blotting for HA-polyubiquitylated proteins and actin using anti-HA and anti-actin antibodies respectively. Intensity of the total HA-polyubiquitylated proteins was quantitated using BioRad Quantity One software and results shown in FIG. 8C.
To complement the results shown in FIG. 8B, another construct was used that expresses HA-ubiquitin and that can preferentially make polyubiquitin chains linked through Lys48 on the substrates (20). In FIG. 8D, A-T and ATM+ cells were transfected with HA-Lys48 only ubiquitin construct. The inhibitor and UV treatments, cell lysis, SDS-PAGE, and immunoblotting analysis to detect HA-ubiquitin conjugated proteins using anti-HA antibodies was carried out as described herein. The experiment was repeated two times with the reproducible results. Similar results were obtained using this distinct HA-ubiquitin construct (FIG. 8D) as obtained herein (FIG. 8B); UV induced MG132- and Bafilomycin-resistant degradation of HA-Lys48-linked polyubiquitylated proteins in A-T cells, but not in ATM+ cells.
For FIG. 14A, HA-ubiquitin-transfected A-T/LV-control shRNA cells were exposed to UV (25 mJ/m2). After three hours of recovery, assessment of HA-polyubiquitylated proteins was carried out as described herein for FIG. 8B. In FIG. 14B, HA-ubiquitin-transfected A-T/LV-control shRNA cells were treated with Bafl (1 nm for 18 h). Cells were then exposed to UV (25 mJ/m2). After three hours of recovery in the presence of the inhibitor, assessment of HA-polyubiquitylated proteins was carried out as described for FIG. 14A. For FIG. 14C, HA-ubiquitin-transfected A-T/LV-control shRNA cells were treated with MG132 (1 nm for 18 h). Cells were then exposed to UV (25 mJ/m2). After three hours of recovery in the presence of the inhibitor, assessment of HA-polyubiquitylated proteins was carried out as described for FIG. 14A. For FIG. 14D, HA-ubiquitin-transfected A-T/LV-control shRNA cells were treated with 3-MA (10 nm for 18 h). Cells were then exposed to UV (25 mJ/m2). […]

[2] = tested on: autophagosomes and autophagolysosomes; test: Cyt-ID and LysoTracker Red staining of autophagosomes, lysosomes and autophagolysosomes
Method: Autophagasome, lysosome and autophagolysosomes staining. Cells (100,000/point) were cultured on fibronectin-coated glass coverslips. Cells were treated with autophagy inhibitor Bafl (1 nM) (Sigma-Aldrich) for 18 hr. Cells were then exposed to UV radiation and allowed to recover in the presence of inhibitors for 3 h. Cells were then washed (2×1 min) with PBS and co-stained with Cyt-ID® (Cyt-ID® Autophagy Detection Kit from Enzo Lifesciences; Farmingdale, NY) and Lyso Tracker® Red DND-99 (Invitrogen) for 30 min at 37° C. in a CO2 incubator following manufacturer's protocol. Stained cells were then washed (2×1 min) with PBS and fixed with 4% paraformaldehyde for 20 min at room temperature. After washing with PBS (3×10 min), cells were mounted on slides in anti-fade mounting medium with DAPI (Invitrogen). Images were taken using a 63× oil immersion objective with a Leica DMRA2 upright microscope run through SlideBook software (Intelligent Imaging Innovations).
Autophagic flux was also monitored using Cyto-ID® and LysoTrack Red dyes. A-T and ATM+ cells were treated with Bafl (1 nM for 18 h) and then exposed to UV (25 mJ/m2) as indicated. Three hours after recovery in the presence of inhibitors, cells were co-stained with Cyt-ID® and LysoTracker Red® dyes. Fluorescence images of Cyt-ID® and LysoTracker Red® stained cells were made (Color images not shown). Green (autophagosomes; from Cyt-TD®-stained panels), red (lysosomes; from LysoTracker Red-stained panels), and yellow (autophagolysosomes; from merged panels) dots in A-T and ATM+ cells were counted manually using the ImageJ plug-in Cell Counter. Mean number of dots/cell is shown in FIGS. 11A and 11B, respectively. In FIGS. 11A and 11B, the number of autophagosomes (green dots) is represented by stippled bars; the number of lysosomes (red dots) is presented by lined bar; and the number of autophagolysosomes (yellow dots) is represented by clear (white) bars.
Bafilomycin inhibits autophagy at a late stage (47). Whether 3-methyl adenine (3-MA), an autophagy inhibitor known to inhibit autophagy at early stage by inhibiting formation of autophagosomes (56), could block UV-induced autophagic flux was tested in A-T/LV-control shRNA cells. Using Cyto-ID® and LysoTrack Red dyes as described herein in FIGS. 9A, 9B, 11A and 11B, the same criteria were used to judge autophagic activity in immunofluorescence analysis as described for FIGS. 11A and 11B.
The effect of 3-MA on UV-induced autophagic flux was tested in A-T/LV-ISG15 shRNA cells. A-T/LV-ISG15 shRNA cells were either left untreated or treated with 3-MA (10 nM for 18 h), and cells were then exposed to UV (25 mJ/m2). Three hours after recovery in the presence of the inhibitor, cells were co-stained with Cyt-ID® and LysoTracker Red® dyes. Fluorescence images of Cyt-ID® and LysoTracker Red® stained cells were made.

[3] = tested on: polyubiquitylated proteins; test: CHX chase of polyubiquitylated proteins in FT169A cells; conditions: FT169A (ATM+) cells
Method: To test whether the defective ubiquitin-mediated degradation of cellular proteins contributes to neurodegeneration in A-T, the rate of degradation of overall cellular polyubiquitylated proteins was monitored in FT169A (A-T) (ATM null) and FT169A (ATM+) (ATM reconstituted FT169A) isogenic cells as described (71) using the protein synthesis inhibitor cycloheximide (CHX) (Sigma-Aldrich). In FIG. 1A, FT169A (A-T) (lanes 1-4) and FT169A (ATM+) (lanes 5-8) cells were treated with the protein synthesis inhibitor CHX (10 μg/ml) for 0, 1, 3, and 6 hours. Cell lysates were analyzed using discontinuous (15%) SDS-PAGE followed by immunoblotting with anti-ubiquitin antibody. The symbols * and ** mark the position of high-molecular-weight (HMW) polyubiquitylated proteins. Quantitation of the high-molecular-weight (HMW) polyubiquitylated proteins (shown as **) is shown in the bar graph.
The ubiquitin sequence contains seven lysine residues (at positions 6, 11, 27, 29, 33, 48, and 63) and polyubiquitin chain assembly can occur at any of these lysine residues (74). Lys48-linked polyubiquitylated proteins are targeted for destruction via the 26S proteasome (74). […] The amount of polyubiquitylated proteins and the rate of turnover of polyubiquitylated proteins (see the HMW protein species marked by *) were determined under the same conditions as in FIG. 1B using the anti-HA antibody in immunoblotting. […]

[4] = tested on: Mfn2; test: Mfn2 modification and degradation in A-T/LV shRNA cells treated with mitochondrial depolarizing agents; conditions: ISG15 overexpressing A-T cells, 24 hr
Method: Immunoblotting Analysis of Mitochondrial Proteins—Mitochondria were isolated from A-T/LV control and ISG15 shRNA cells using the Miochondrial Isolation Kit (Thermo Scientific Company, 89874). The Dounce homogenization protocol described by the manufacturer was used to isolate mitochondria from cells. Mitochondrial pellets were resuspended in lysis buffer containing 50 mM Tris pH 7.5 and 4% (v/v) SDS. Samples were homogenized and boiled for 10 min. Lysates containing equal protein were then mixed with 6× Laemmli SDS sample buffer (3× final concentration). Samples were boiled again and mitochondrial proteins were analyzed by SDS-PAGE. Immunoblotting analyses using either anti-ISG15 (raised against human ISG15) (20), anti-ubiquitin (gift from Dr. Arthur Haas, at LSUHSC—New Orleans), or anti-mitofusin 2 (Abcam, ab88569) antibodies were carried out using the ECL Western procedure (Pierce, 34076) and the BioRad VersaDoc Imaging System (BioRad). Immunoblotting Analysis of HA Polyubiquitylated Proteins in Cells: Cells were transfected with HA-ubiquitin using the PolyFect transfection reagent (Qiagen, 301105). Twenty four hours after transfection, mitochondria were isolated as described above. Mitochondrial lysis, SDS-PAGE, and immunoblotting analysis to detect HA-ubiquitin conjugated proteins using anti-HA antibodies were carried out as described above. Immunoblotting Analysis of Mfn2 in Cells: Cells were lysed in lysis buffer containing 50 mM Tris-HCl, pH 7.5, 2% SDS, and protease inhibitor cocktail. Lysates were sonicated, boiled, and cleared by centrifugation. Lysates containing equal protein were then mixed with 6× Laemmli SDS sample buffer (3× final concentration). Samples were boiled again and proteins were separated by 15% SDS-PAGE. Immunoblotting analysis was carried out using anti-Mfn2 antibodies (Abcam) as described above. Intensity of the Mfn2 bands was quantitated using BioRad Quantity One software. Statistical analysis—Statistical analysis was carried out using GraphPad software.
Many outer mitochondrial membrane (OMM) proteins are ubiquitylated and degraded via the 26S proteasome prior to mitophagy in cells treated with the mitochondrial depolarizing agents (28,29). To test whether ISG15 inhibits polyubiquitylation of OMM proteins, we assessed the fate of Mfn2, an OMM protein and proteasome substrate, in A-T/LV-control and A-T/LV-ISG15-silenced cells treated with two different mitochondrial depolarizing agents, valinomycin and carbonylcyanide m-chlorophenylhydrazone (CCCP). Consistent with the literature reports (29,35,36), we observed a ladder of high molecular weight anti-Mfn2 cross-reactive bands above the 86 kDa Mfn2 protein band that is reminiscent of polyubiquitylation, in both ISG15-silenced and ISG15 overexpressing A-T cells (FIGS. 34 A and B, left panels). The endogenous level of these high molecular weight Mfn2 cross-reactive bands was remarkably higher in ISG15-silenced as compared to the ISG15-overexpressing A-T cells in the absence of any drugs (FIGS. 34A and B, first panels, compare lanes 1 and 4). […] In contrast, the level of these Mfn2 cross-reactive high molecular weight bands decreased under the same drug treatment conditions in ISG15-silenced A-T cells (FIGS. 34A and B, first panels, lanes 4-6, and the accompanying bar graph in the second panel for quantitation). […] The bar graphs in FIGS. 34A and B, third panels, show mean values of the ratio between free Mfn2 (86 kDa band) and actin proteins (±SEM) in CCCP-treated A-T/LV-control and ISG15 shRNA cells measured from eight independent experiments, and valinomycin-treated A-T/LV-control and ISG15 shRNA cells measured from three independent experiments respectively.

Cn1cnc(N)c2ncnc1-2 [3-MA, 3-Methyladenine]
UV-induced degradation of HA-polyubiquitylated proteins ([1]; A-T/LV-ISG15 shRNA (ISG15-silenced) cells): induced degradation | UV-induced degradation of HA-polyubiquitylated proteins ([1]; A-T/LV-control shRNA cells): markedly blocked | yellow mean dots/cell (autophagolysosomes) ([2]; 3-MA-treated A-T/LV-control shRNA cells, untreated 3.8): 0.5 dots/cell | green mean dots/cell (autophagosomes) ([2]; 3-MA-treated A-T/LV-control shRNA cells, untreated 4.6): 0.16 dots/cell | autophagic activity ([2]; A-T/LV-ISG15 shRNA cells, 3-MA 10 nM 18 h, UV 25 mJ/m2): No apparent change | green dots and yellow dots ([2]; A-T/LV-control shRNA cells co-treated with 3-MA and UV): remained unaltered

C[C@@H]1C[C@@H]([C@H](O)CC2CC(=O)NC(=O)C2)C(=O)[C@@H](C)C1 [CHX, cycloheximide]
level of polyubiquitylated proteins reduced ([3]; CHX 10 μg/ml, within 6 hours): more than 30% | cellular pool of Lys48-linked polyubiquitylated proteins reduced ([3]; CHX, within 3 hours): more than 70%

CC(C)[C@@H]1NC(=O)[C@H](C)OC(=O)[C@@H](C(C)C)NC(=O)[C@@H](C(C)C)OC(=O)[C@H](C(C)C)NC(=O)[C@H](C)OC(=O)[C@@H](C(C)C)NC(=O)[C@@H](C(C)C)OC(=O)[C@H](C(C)C)NC(=O)[C@H](C)OC(=O)[C@@H](C(C)C)NC(=O)[C@@H](C(C)C)OC1=O [valinomycin]
free Mfn2 protein level [4]: slightly increased
